# From the Kinase Knowledgebase extract (Sharma et al. 2016)
# Biological target: CDK2 (human) (UniProt P24941)
# Test: Enzyme Assay
row,SMILES,Ki [µM]
1,Cc1cc(Nc2cc(-c3ccc(OCCCN(C)C)cc3)nc(Sc3ccc4c(=O)[nH][nH]c4c3)n2)n[nH]1,< 1
2,COc1cccc2c(Nc3cc(C)[nH]n3)nc(Sc3ccc4c(=O)[nH][nH]c4c3)nc12,< 1
3,O=c1[nH][nH]c2cc(CCC3COCC(Nc4ccccn4)C3)ccc12 (stereo not drawn),< 1
4,Cc1cnc(NC2CCCC(Oc3ccc4c(=O)[nH][nH]c4c3)C2)s1 (stereo not drawn),< 1
5,O=c1[nH][nH]c2cc(OCCCNc3cc(C4CC4)[nH]n3)ccc12,< 1
6,Cc1cc(Nc2nc(Oc3ccc4c(=O)[nH][nH]c4c3)nc3ccccc23)n[nH]1,< 1
7,O=c1[nH][nH]c2cc(SCCC(Nc3ccccn3)c3ccccc3)ccc12 (stereo not drawn),< 1
8,O=c1[nH][nH]c2cc(Cl)c(-c3cc(C4CCCCC4)nc(Nc4n[nH]c5ccccc45)n3)cc12,< 1
9,O=c1[nH][nH]c2cc(C(F)(F)F)c(-c3cc(Nc4n[nH]c5ccccc45)c4cccnc4n3)cc12,< 1
10,CCc1cc(Nc2nc(Nc3ccc4c(=O)[nH][nH]c4c3)nc3ccccc23)n[nH]1,< 1
11,O=c1[nH][nH]c2cc(OCC3CCCC3Nc3ccccn3)ccc12 (stereo not drawn),< 1
12,Cc1cnc(NC2CCC(c3ccc4[nH][nH]c(=O)c4c3)C2)s1 (stereo not drawn),< 1
13,CN1CCN(c2cccc3c(Nc4n[nH]c5c(F)cccc45)nc(-c4ccc5[nH][nH]c(=O)c5c4C(F)(F)F)nc23)CC1,< 1
14,O=c1[nH][nH]c2cc(Cl)c(-c3nc(Nc4n[nH]c5ccc(F)cc45)c4cnoc4n3)cc12,< 1
15,O=c1[nH][nH]c2ccc(-c3cnnc(Nc4cc(C5CC5)[nH]n4)c3)cc12,< 1
16,O=c1[nH][nH]c2ccc(-c3nc4c(c(Nc5n[nH]c6ccccc56)n3)N(Cc3ccccc3)CCC4)c(C(F)(F)F)c12,< 1
17,Cn1cnc(NC(CCNc2ccc3c(=O)[nH][nH]c3c2)c2ccccc2)c1 (stereo not drawn),< 1
18,Cc1cc(Nc2cc(-c3ccccc3C)nc(Sc3ccc4c(=O)[nH][nH]c4c3)n2)n[nH]1,< 1
19,O=c1[nH][nH]c2cc(OC3CCCC(Nc4ccccn4)C3)ccc12 (stereo not drawn),< 1

row,SMILES,Ki [µM]
1,O=C(CCNc1nccnn1)Cc1ccc2c(=O)[nH][nH]c2c1,< 1
2,Cn1cnc(NC2CCC(Sc3ccc4c(=O)[nH][nH]c4c3)C2)c1 (stereo not drawn),< 1
3,O=c1[nH][nH]c2cc(OC3CCCC(Nc4nccnn4)C3)ccc12 (stereo not drawn),< 1
4,O=C(NC1CC1)c1cc(Nc2nc(-c3ccc4[nH][nH]c(=O)c4c3)nc3ccccc23)n[nH]1,< 1
5,Cc1cc(Nc2nc(Sc3ccc4c(=O)[nH][nH]c4c3)nc3ccccc23)n[nH]1,< 1
6,O=c1[nH][nH]c2ccc(-c3nc4c(c(Nc5n[nH]c6ccc(F)cc56)n3)CN(Cc3ccccc3)CC4)c(C(F)(F)F)c12,< 1
7,COCC(C)(C)c1cc(Nc2cc(C)[nH]n2)nc(Sc2ccc3c(=O)[nH][nH]c3c2)n1,< 1
8,Cc1cnc(NC2CCC(Cc3ccc4c(=O)[nH][nH]c4c3)C2)s1 (stereo not drawn),< 1
9,O=C1Cc2nc(-c3ccc4[nH][nH]c(=O)c4c3C(F)(F)F)nc(Nc3n[nH]c4ccccc34)c2CN1,< 1
10,COCCNc1cc(Nc2cc(C)[nH]n2)nc(OCc2ccc3c(=O)[nH][nH]c3c2)n1,< 1
11,Cc1cc(Nc2cc(Cc3ccc4c(=O)[nH][nH]c4c3)nc3ccccc23)n[nH]1,< 1
12,Cn1cnc(NC2CCCC(C(C)(C)c3ccc4c(=O)[nH][nH]c4c3)C2)c1 (stereo not drawn),< 1
13,Cc1cnc(NC2CCCC(Nc3ccc4c(=O)[nH][nH]c4c3)C2)s1 (stereo not drawn),< 1
14,Cc1cc(Nc2nc(Nc3ccc4c(=O)[nH][nH]c4c3)nc3c2CN(Cc2ccccc2)CC3)n[nH]1,< 1
15,Cc1nc(Nc2cc(-c3ccncc3)nc(-c3ccc4[nH][nH]c(=O)c4c3C(F)(F)F)n2)n[nH]1,< 1
16,O=c1[nH][nH]c2cc(NC3CCCC(Nc4nccnn4)C3)ccc12 (stereo not drawn),< 1
17,O=c1[nH][nH]c2ccc(-c3nc(Nc4n[nH]c5c(F)cccc45)c4ccncc4n3)c(Cl)c12,< 1
18,O=c1[nH][nH]c2ccc(CNc3cc(Nc4cc(C5CC5)[nH]n4)c4ccccc4n3)cc12,< 1
19,Cn1cnc(NCCC(Cc2ccccc2)Oc2ccc3c(=O)[nH][nH]c3c2)c1 (stereo not drawn),< 1
